Measured values as given in patent publication US12344597B2, “Alkoxy-substituted pyridinyl derivatives as LPA1 receptor antagonists and their use in the treatment of fibrosis” (IDORSIA PHARMACEUTICALS LTD, priority 2018, dated 2025).
Counter-ions that a name gives are not always drawn.

Target: human LPA1 receptor (Homo sapiens (Human), UniProt Q92633)
Experiment: Beta-arrestin recruitment assay to determine IC50 values for human LPAR1
Assay type: cell-based
Details: antagonist mode, Tango EDG2-bla U2OS cells, LPA 18:1 500 nM final
Text: Beta-Arrestin Recruitment Assay to Determine IC50 Values for Human LPAR1
The Tango™ EDG2-bla U2OS cells are obtained from Invitrogen. These cells contain the human LPA1 receptor cDNA linked to a TEV protease site and a Gal4-VP16 transcription factor integrated into the Tango™ GPCR-bla U2OS parental cell line. This parental cell line stably expresses a beta-arrestin/TEV protease fusion protein and the beta-lactamase (bla) reporter gene under the control of a UAS response element. Upon LPA (agonist) binding, LPA1 receptor gets activated, leading to arrestin-protease recruitment and proteolytic release of the transcription factor: The transcription factor then regulates transcription of a beta-lactamase reporter construct, which is measured upon addition of the live-cell substrate.
10′000 Tango™ EDG2-bla U2OS cells are seeded in a 384-well black with clear bottom plate in 30 μl Freestyle 293 Expression Medium (Invitrogen) and incubated for 20 h at 37° C., 5% CO2. […] IC50 is the concentration of antagonist inhibiting 50% of the maximal response.

Chain of human LPA1 receptor (Q92633 whole entry): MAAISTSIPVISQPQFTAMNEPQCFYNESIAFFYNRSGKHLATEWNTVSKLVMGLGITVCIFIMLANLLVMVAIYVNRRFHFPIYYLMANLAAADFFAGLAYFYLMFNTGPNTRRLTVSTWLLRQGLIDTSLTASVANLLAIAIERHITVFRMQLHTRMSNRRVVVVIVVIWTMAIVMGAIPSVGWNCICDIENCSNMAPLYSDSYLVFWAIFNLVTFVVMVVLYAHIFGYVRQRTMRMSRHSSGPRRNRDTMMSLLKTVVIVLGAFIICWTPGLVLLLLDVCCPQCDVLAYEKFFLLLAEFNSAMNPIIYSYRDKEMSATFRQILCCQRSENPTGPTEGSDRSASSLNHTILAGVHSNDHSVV

| IC50 [nM] | Structure (SMILES) |
| --- | --- |
| 104 | COc1cc(Br)cnc1NC(=O)C1(c2ccccc2C(C)C)CN(C(=O)CC(C)(C)C(=O)O)C1 [Ex 79-5, 4-(3-((5-bromo-3-methoxypyridin-2-yl)carbamoyl)-3-(2-isopropylphenyl)azetidin-1-yl)-2,2-dimethyl-4-oxobutanoic acid] |
| 51 | Cc1ccc(NC(=O)C2(c3ccccc3C(C)C)CN(C(=O)CC3CCC(C(=O)O)CC3)C2)c(OC(F)F)n1 (centres unmarked) [Ex 52, 4-(2-(3-((2-(difluoromethoxy)-6-methylpyridin-3-yl)carbamoyl)-3-(2-isopropylphenyl)azetidin-1-yl)-2-oxoethyl)cyclohexane-1-carboxylic acid] |
| 23 | Cc1ccc(NC(=O)C2(c3ccccc3C(C)C)CN(CC3(CC(=O)O)CC3)C2)c(OC(F)F)n1 [Ex 11-68, 2-(1-((3-((2-(difluoromethoxy)-6-methylpyridin-3-yl)carbamoyl)-3-(2-isopropylphenyl)azetidin-1-yl)methyl)cyclopropyl)acetic acid] |
| 60 | COc1nc(Cl)ccc1NC(=O)C1(c2ccccc2C(C)C)CN(C(=O)CCC(=O)O)C1 [Ex 12-70, 4-(3-((6-chloro-2-methoxypyridin-3-yl)carbamoyl)-3-(2-isopropylphenyl)azetidin-1-yl)-4-oxobutanoic acid] |
| 67 | COC(=O)Cn1cccc1CN1CC(C(=O)Nc2ccc(C)nc2OC(F)F)(c2ccccc2C(C)C)C1 [Ex 11-41, methyl 2-(2-((3-((2-(difluoromethoxy)-6-methylpyridin-3-yl)carbamoyl)-3-(2-isopropylphenyl)azetidin-1-yl)methyl)-1H-pyrrol-1-yl)acetate] |
| 10 | Cc1ccc(NC(=O)C2(c3ccccc3C(C)C)CN(C(=O)CN(C)S(N)(=O)=O)C2)c(OC(F)F)n1 [Ex 12-8, N-(2-(difluoromethoxy)-6-methylpyridin-3-yl)-3-(2-isopropylphenyl)-1-(N-methyl-N-sulfamoylglycyl)azetidine-3-carboxamide] |
| 95 | COC(=O)c1cnc(CN2CC(C(=O)Nc3ccc(C)nc3OC(F)F)(c3ccccc3C(C)C)C2)cn1 [Ex 11-54, methyl 5-((3-((2-(difluoromethoxy)-6-methylpyridin-3-yl)carbamoyl)-3-(2-isopropylphenyl)azetidin-1-yl)methyl)pyrazine-2-carboxylate] |
| 25 | COC(=O)c1cc(S(=O)(=O)N2CC(C(=O)Nc3ccc(C)nc3OC(F)F)(c3ccccc3C(C)C)C2)on1 [Ex 13-26, methyl 5-((3-((2-(difluoromethoxy)-6-methylpyridin-3-yl)carbamoyl)-3-(2-isopropylphenyl)azetidin-1-yl)sulfonyl)isoxazole-3-carboxylate] |
| 47 | CC(=O)NS(=O)(=O)N(C)CC(=O)N1CC(C(=O)Nc2ccc(C)nc2OC(F)F)(c2ccccc2C(C)C)C1 [Ex 16-5, 1-(N-(N-acetylsulfamoyl)-N-methylglycyl)-N-(2-(difluoromethoxy)-6-methylpyridin-3-yl)-3-(2-isopropylphenyl)azetidine-3-carboxamide] |
| 14 | Cc1ccc(NC(=O)C2(c3ccccc3C(C)C)CN(CCC(C)(C)O)C2)c(OC(F)F)n1 [Ex 11-9, N-(2-(difluoromethoxy)-6-methylpyridin-3-yl)-1-(3-hydroxy-3-methylbutyl)-3-(2-isopropylphenyl)azetidine-3-carboxamide] |
| 98 | COC(=O)C(C)(C)CCN1CC(C(=O)Nc2ccc(C)nc2OC(F)F)(c2ccccc2C(C)C)C1 [Ex 11-30, methyl 4-(3-((2-(difluoromethoxy)-6-methylpyridin-3-yl)carbamoyl)-3-(2-isopropylphenyl)azetidin-1-yl)-2,2-dimethylbutanoate] |
| > 10000 | COCCNS(=O)(=O)N1CC(C(=O)Nc2cccnc2OC)(c2ccccc2)C1 [Ex 86, 1-(N-(2-methoxyethyl)sulfamoyl)-N-(2-methoxypyridin-3-yl)-3-phenylazetidine-3-carboxamide, reference compound] |
| 110 | Cc1cnc(NC(=O)C2(c3ccccc3C(C)C)CN(S(=O)(=O)CCC(=O)O)C2)c(OC(F)F)c1 [Ex 80-2, 3-((3-((3-(difluoromethoxy)-5-methylpyridin-2-yl)carbamoyl)-3-(2-isopropylphenyl)azetidin-1-yl)sulfonyl)propanoic acid] |
| 13 | Cc1ccc(NC(=O)C2(c3ccccc3C(C)C)CN(C(=O)[C@H]3C[C@H]3C(=O)O)C2)c(OC(F)F)n1 [Ex 12-97, (1R,2S)-2-(3-((2-(difluoromethoxy)-6-methylpyridin-3-yl)carbamoyl)-3-(2-isopropylphenyl)azetidine-1-carbonyl)cyclopropane-1-carboxylic acid] |
| 10 | Cc1ccc(NC(=O)C2(c3ccccc3C(C)C)CN(C[C@@H](O)CNC(=O)CO)C2)c(OC(F)F)n1 [Ex 11-86, (S)-N-(2-(difluoromethoxy)-6-methylpyridin-3-yl)-1-(2-hydroxy-3-(2-hydroxyacetamido)propyl)-3-(2-isopropylphenyl)azetidine-3-carboxamide] |
| 222 | Cc1ccc(NC(=O)C2(c3ccccc3C(C)C)CN(C(=O)CCn3cnnc3)C2)c(OC(F)F)n1 [Ex 12-28, 1-(3-(4H-1,2,4-triazol-4-yl)propanoyl)-N-(2-(difluoromethoxy)-6-methylpyridin-3-yl)-3-(2-isopropylphenyl)azetidine-3-carboxamide] |
| 6 | CCCNS(=O)(=O)N1CC(C(=O)Nc2ccc(C)nc2OC(F)F)(c2ccccc2C(C)C)C1 [Ex 15-11, N-(2-(difluoromethoxy)-6-methylpyridin-3-yl)-3-(2-isopropylphenyl)-1-(N-propylsulfamoyl)azetidine-3-carboxamide] |
| 19 | Cc1ccc(NC(=O)C2(c3ccccc3C(C)C)CN(C(=O)Cc3cc(O)n[nH]3)C2)c(OC(F)F)n1 [Ex 12-24, N-(2-(difluoromethoxy)-6-methylpyridin-3-yl)-1-(2-(3-hydroxy-1H-pyrazol-5-yl)acetyl)-3-(2-isopropylphenyl)azetidine-3-carboxamide] |
| 12 | Cc1ccc(NC(=O)C2(c3ccccc3C(C)C)CN(C(=O)OCC(=O)O)C2)c(OC(F)F)n1 [Ex 14-1, 2-((3-((2-(difluoromethoxy)-6-methylpyridin-3-yl)carbamoyl)-3-(2-isopropylphenyl)azetidine-1-carbonyl)oxy)acetic acid] |
| 9 | CC(=O)N(O)CC(=O)N1CC(C(=O)Nc2ccc(C)nc2OC(F)F)(c2ccccc2C(C)C)C1 [Ex 12-136, 1-(N-acetyl-N-hydroxyglycyl)-N-(2-(difluoromethoxy)-6-methylpyridin-3-yl)-3-(2-isopropylphenyl)azetidine-3-carboxamide] |
| 5 | Cc1ccc(NC(=O)C2(c3ccccc3C(C)C)CN(Cc3ccc(C(=O)O)[nH]3)C2)c(OC(F)F)n1 [Ex 11-44, 5-((3-((2-(difluoromethoxy)-6-methylpyridin-3-yl)carbamoyl)-3-(2-isopropylphenyl)azetidin-1-yl)methyl)-1H-pyrrole-2-carboxylic acid] |
| 69 | COC(=O)C1(CCCN2CC(C(=O)Nc3ccc(C)nc3OC(F)F)(c3ccccc3C(C)C)C2)CC1 [Ex 11-70, methyl 1-(3-(3-((2-(difluoromethoxy)-6-methylpyridin-3-yl)carbamoyl)-3-(2-isopropylphenyl)azetidin-1-yl)propyl)cyclopropane-1-carboxylate] |
| 96 | Cc1ccc(NC(=O)C2(c3ccccc3C(C)C)CN(CC3CCC(C(=O)O)CC3)C2)c(OC(F)F)n1 (centres unmarked) [Ex 41, 4-((3-((2-(difluoromethoxy)-6-methylpyridin-3-yl)carbamoyl)-3-(2-isopropylphenyl)azetidin-1-yl)methyl)cyclohexane-1-carboxylic acid] |
| 15 | CC(C)c1ccccc1C1(C(=O)Nc2ncc(Cl)cc2OC(F)F)CNC1 [Ex 72, N-(5-chloro-3-(difluoromethoxy)pyridin-2-yl)-3-(2-isopropylphenyl)azetidine-3-carboxamide] |
| 5 | Cc1ccc(NC(=O)C2(c3ccccc3C(C)C)CN(CC(C)N)C2)c(OC(F)F)n1 (centres unmarked) [Ex 11-11, 1-(2-aminopropyl)-N-(2-(difluoromethoxy)-6-methylpyridin-3-yl)-3-(2-isopropylphenyl)azetidine-3-carboxamide] |
| 84 | COc1ccc(NC(=O)C2(c3ccccc3C(C)C)CNC2)c(OC)n1 [Ex 6, N-(2,6-dimethoxypyridin-3-yl)-3-(2-isopropylphenyl)azetidine-3-carboxamide hydrochloride] |
| 481 | Cc1ccc(NC(=O)C2(c3ccccc3C(C)C)CN(C(=O)[C@H](CO)NC(=O)OC(C)(C)C)C2)c(OC(F)F)n1 [Ex 12-39, tert-butyl (S)-(1-(3-((2-(difluoromethoxy)-6-methylpyridin-3-yl)carbamoyl)-3-(2-isopropylphenyl)azetidin-1-yl)-3-hydroxy-1-oxopropan-2-yl)carbamate] |
| 41 | CC(C)c1ccccc1C1(C(=O)Nc2cc(F)cnc2OC(F)F)CN(C(=O)CC(C)(C)C(=O)O)C1 [Ex 12-87, 4-(3-((2-(difluoromethoxy)-5-fluoropyridin-3-yl)carbamoyl)-3-(2-isopropylphenyl)azetidin-1-yl)-2,2-dimethyl-4-oxobutanoic acid] |
| 28 | Cc1ccc(NC(=O)C2(c3ccccc3C(C)C)CN(C(=O)C3C4CC3(C(=O)O)C4)C2)c(OC(F)F)n1 (centres unmarked) [Ex 12-108, 2-(3-((2-(difluoromethoxy)-6-methylpyridin-3-yl)carbamoyl)-3-(2-isopropylphenyl)azetidine-1-carbonyl)bicyclo[1.1.1]pentane-1-carboxylic acid] |
